Experimental data: PMC7112121 (Bioorganic Chemistry, 2019)
Converted amounts (≈) assume the structure as drawn.

How the values were obtained:
HSV-1 = experiment: Antiviral CPE reduction assay, HSV-1 in HEL cells; format: cell-based, Herpes simplex virus-1; details: for Antiviral EC50 HSV-1: HEL cells, CPE by microscopy, mean of two experiments; for EC50: Human alphaherpesvirus 1, HEL, read-out: Antiviral EC50 HSV-1
ACV^r-HSV-1 = experiment: Antiviral CPE reduction assay, ACVr-HSV-1 in HEL cells; format: cell-based; details: for Antiviral EC50 ACV^r-HSV-1: HEL cells, CPE by microscopy, mean of two experiments; for EC50: Human alphaherpesvirus 1, HEL, read-out: Antiviral EC50 ACV^r-HSV-1
HSV-2 = experiment: Antiviral CPE reduction assay, HSV-2 in HEL cells; format: cell-based, Herpes simplex virus-2; details: for Antiviral EC50 HSV-2: HEL cells, CPE by microscopy, mean of two experiments; for EC50: Human alphaherpesvirus 2, HEL, read-out: Antiviral EC50 HSV-2
Vaccinia virus = experiment: microbe, parasite or virus in culture; format: cell-based; details: for EC50: Orthopoxvirus vaccinia, HEL, read-out: Antiviral EC50 Vaccinia virus
[1] = system: Vesicular stomatitis virus; format: cell-based
Parainfluenza-3 virus = experiment: Antiviral CPE reduction assay, Parainfluenza-3 virus in VERO cells; format: cell-based; details: for Antiviral EC50 Parainfluenza-3 virus: VERO cells, CPE by microscopy, mean of two experiments; for EC50: Vero, read-out: Antiviral EC50 Parainfluenza-3 virus
Reovirus-1 = experiment: Antiviral CPE reduction assay, Reovirus-1 in VERO cells; format: cell-based; details: for Antiviral EC50 Reovirus-1: VERO cells, CPE by microscopy, mean of two experiments; for EC50: Vero, read-out: Antiviral EC50 Reovirus-1
Sindbis virus = experiment: Antiviral CPE reduction assay, Sindbis virus in VERO cells; format: cell-based; details: for Antiviral EC50 Sindbis virus: VERO cells, CPE by microscopy, mean of two experiments; for EC50: Sindbis virus, Vero, read-out: Antiviral EC50 Sindbis virus
Coxsackie B4 virus = experiment: Antiviral CPE reduction assay, Coxsackie B4 virus in VERO cells; format: cell-based; details: for Antiviral EC50 Coxsackie B4 virus: VERO cells, CPE by microscopy, mean of two experiments; for EC50: Enterovirus B, B4, Vero, read-out: Antiviral EC50 Coxsackie B4 virus
Punto Toro virus = experiment: Antiviral CPE reduction assay, Punto Toro virus in VERO cells; format: cell-based, Punta toro virus; details: for Antiviral EC50 Punto Toro virus: VERO cells, CPE by microscopy, mean of two experiments; for EC50: Punta Toro virus, Vero, read-out: Antiviral EC50 Punto Toro virus
DNA virus = experiment: Anti-DNA virus activity in HEL cells; format: cell-based
CRFK feline kidney cells = details: MTS cell viability assay
[2] = system: human embryonic lung (HEL) fibroblast cells; details: minimum cytotoxic concentration, microscopic inspection of cell morphology
VERO cells = details: minimum cytotoxic concentration, microscopic inspection of cell morphology
[3] = system: Mycobacterium tuberculosis H37Rv; details: for H37Rv Finding Activity: M. tuberculosis H37Rv, MABA in BACTEC 12B medium
Feline herpesvirus = experiment: Antiviral CPE reduction assay, Feline herpesvirus in CRFK cells; format: cell-based; details: Felid alphaherpesvirus 1, CRFK, read-out: Antiviral EC50 Feline herpesvirus
Feline coronavirus = experiment: microbe, parasite or virus in culture; details: Alphacoronavirus 1, CRFK, read-out: Antiviral EC50 Feline coronavirus
[4] = system: Mycobacterium tuberculosis H37Rv; experiment: microbe, parasite or virus in culture; details: for MIC: read-out: H37Rv Finding MIC
in vitro [5] = details: cat
in vitro [6] = details: African green monkey

SMILES | Antiviral EC50 HSV-1 (HSV-1) [µg/mL] | Antiviral EC50 ACV^r-HSV-1 (ACV^r-HSV-1) [µg/mL] | Antiviral EC50 HSV-2 (HSV-2) [µg/mL] | Antiviral EC50 Vaccinia virus (Vaccinia virus) [µg/mL] | Antiviral EC50 Vesicular stomatitis virus [1] [µg/mL] | Antiviral EC50 Parainfluenza-3 virus (Parainfluenza-3 virus) [µg/mL] | Antiviral EC50 Reovirus-1 (Reovirus-1) [µg/mL] | Antiviral EC50 Sindbis virus (Sindbis virus) [µg/mL] | Antiviral EC50 Coxsackie B4 virus (Coxsackie B4 virus) [µg/mL] | Antiviral EC50 Punto Toro virus (Punto Toro virus) [µg/mL] | antiviral EC50 values, anti-DNA virus activity (DNA virus) | Cytotoxicity CC50 (CRFK feline kidney cells) [µg/mL] | Cytotoxicity MCC [2] [µg/mL] | Cytotoxicity MCC (VERO cells) [µg/mL] | H37Rv Finding Activity [3] | EC50 (Feline herpesvirus) [µg/mL] | EC50 (HSV-1) [µg/mL] | EC50 (ACV^r-HSV-1) [µg/mL] | EC50 (HSV-2) [µg/mL] | EC50 (Vaccinia virus) [µg/mL] | also measured
O=C(Cc1csc2nc(-c3ccc(Br)cc3)cn12)NN=C1CCC(c2ccccc2)CC1 (stereo not drawn) [Compound 4c, 6-(4-Bromophenyl)–N^2-(4-phenylcyclohexylidene)imidazo[2,1-b]thiazole-3-acetohydrazide] | 45 | ≥45 | ≥45 | 45 | >100 | >100 | >100 | >100 | >100 | >100 | about 45 µg/mL | >100 | ≥100 | >100 | Weak Active | – | – | – | – | – | H37Rv Finding MIC [3]: >100 µg/mL
O=C(Cc1csc2nc(-c3ccc(Br)cc3)cn12)NN1C(=O)CSC12CCC(c1ccccc1)CC2 (stereo not drawn) [Compound 5c, 2-[6-(4-Bromophenyl)imidazo[2,1-b]thiazole-3-yl]-N-(3-oxo-8-phenyl-1-thia-4-azaspiro[4.5]dec-4-yl)acetamide] | – | – | – | – | – | – | – | – | – | – | – | – | 20 | 20 | Active | > 100 | > 100 | > 100 | > 100 | > 100 | EC50 (Parainfluenza-3 virus): > 100 µg/mL; EC50 (Reovirus-1): > 100 µg/mL; EC50 (Sindbis virus): > 100 µg/mL; EC50 (Coxsackie B4 virus): > 100 µg/mL; EC50 (Punto Toro virus): > 100 µg/mL; EC50 (Feline coronavirus): > 100 µg/mL; MIC [4]: 0.854 µg/mL (≈ 1.47 µM); IC50 ([4]; read-out: H37Rv Finding lC50): 0.76 µg/mL (≈ 1.31 µM)
O=C(Cc1csc2nc(-c3ccc(Br)cc3)cn12)NN1C(=O)CSC12CCC(c1ccc(O)cc1)CC2 (stereo not drawn) [Compound 5d, 2-[6-(4-Bromophenyl)imidazo[2,1-b]thiazole-3-yl]-N-(3-oxo-8-(4-hydroxyphenyl)-1-thia-4-azaspiro[4.5]dec-4-yl)acetamide] | – | – | – | – | – | – | – | – | – | – | – | – | 20 | >100 | – | 21 (≈ 35.1 µM) | > 100 | > 100 | > 100 | > 100 | EC50 (Parainfluenza-3 virus): > 100 µg/mL; EC50 (Reovirus-1): > 100 µg/mL; EC50 (Sindbis virus): > 100 µg/mL; EC50 (Coxsackie B4 virus): > 100 µg/mL; EC50 (Punto Toro virus): > 100 µg/mL; selectivity ratio (in vitro [5]): > 20; EC50 (Feline coronavirus): 4.8 µg/mL (≈ 8.03 µM)
CO[C@H]1/C=C/O[C@@]2(C)Oc3c(C)c(O)c4c(O)c(c(/C=N/N5CCN(C)CC5)c(O)c4c3C2=O)NC(=O)/C(C)=C\C=C\[C@H](C)[C@H](O)[C@@H](C)[C@@H](O)[C@@H](C)[C@H](OC(C)=O)[C@@H]1C [Rifampin, reference compound] | – | – | – | – | – | – | – | – | – | – | – | – | – | – | Active | – | – | – | – | – | CC50 (in vitro [6]): > 100 µg/mL; MIC [4]: 0.125 µg/mL (≈ 0.152 µM)
O=C(Cc1csc2nc(-c3ccc(Br)cc3)cn12)NN=C1CCC(c2ccc(O)cc2)CC1 (stereo not drawn) [Compound 4d, 6-(4-Bromophenyl)–N^2-(4-hydroxyphenylcyclohexylidene)imidazo[2,1-b]thiazole-3-acetohydrazide] | 45 | 45 | 45 | 45 | >100 | >100 | >100 | >100 | >100 | >100 | about 45 µg/mL | 68 | >100 | >100 | – | – | – | – | – | – | –
